Reference: patent US11179501B2, “Bone morphogenetic protein pathway activation, compositions for ossification, and methods related thereto” (Emory University, priority 2011, dated 2021)

How the values were obtained:
[1] = test system: C2C12 cells; test: Alkaline phosphatase (ALP) assay: potentiation of BMP-2-induced ALP activity; conditions: for Fold increase in BMP-Potentiated ALP activity over BMP control: C2C12 cells, 50 ng/ml BMP-2, 72 hours
Description: (§1) Their activity was evaluated by determining the potentiation of alkaline phosphatase activity in sub-optimal doses of BMP in the presence or absence of exogenously added noggin.
The BMP-potentiating activities of compounds may be evaluated by monitoring several markers of the osteoblastic phenotype corresponding to various time points during phenotype differentiation of C2C12 cells towards terminally differentiated osteoblasts.
The C2C12 cells at passages 5 to 10 were subcultured in T-75 cm^2 flasks in DMEM supplemented with 10% FBS at 37° C. in 5% CO2 with humidification. When the flasks reached 80% confluence, the cells were trypsinized and seeded in triplicate.
The C2C12 cells were plated at 200,000 cells/well in 6-well plates and grown overnight in DMEM containing 10% FBS. On day 2, the culture medium was replaced with DMEM containing 2% FBS and the cells were treated with various concentrations of compound for 24 hours. On day 3, the culture medium was replaced with DMEM containing 2% FBS and the cells were treated with 50 ng/ml of BMP-2 and various concentrations of compound for 72 hours. The cells were washed with phosphate-buffered saline (PBS) and lysed by addition of lysis buffer (10 mM Tris-HCl pH 8.0, 1 mM MgCl2 and 1.0% Triton X-100). The cell lysates were centrifuged for 5 minutes at 13,000×g. The supernatant was removed and the aliquots were assayed for ALP activity and protein amount. The ALP activity was measured in triplicate using an ALP assay kit (Sigma-Aldrich, St. Louis, Mo.) in microtiter plates. The protein amount was determined with Bio-Rad protein assay reagent (Bio-Rad, Hercules, Calif.) using bovine serum albumin (BSA) as a standard. The ALP activity (nmoles of p-nitrophenol per ml) was normalized to the protein amount (nmoles of p-nitrophenol per μg).

[2] = test system: C2C12 cells; test: BMP-Noggin competitive alkaline phosphatase (ALP) assay; assay type: cell-based, Mouse; conditions: for Fold increase in Noggin-Inhibition ALP Assay over BMP alone control: BMP-2 90-100 ng/ml plus noggin 100-120 ng/ml, 72 hours; for cell lifting from culture plates: BMP-Noggin competitive ALP assay, low cell number and low yield of protein
Description: as §1
Mouse C2C12 cells and Dulbecco's modified Eagle's medium (DMEM) were purchased from ATCC (Manassas, Va.). The non-heat inactivated fetal bovine serum (FBS) was purchased from HyClone Laboratories, Inc. (Logan, Utah). The C2C12 cells at passages 5 to 10 were subcultured in T-75 cm^2 flasks in DMEM supplemented with 10% FBS at 37° C. in 5% CO2 with humidification. When the flasks reached 80% confluence, the cells were trypsinized and seeded in triplicate.
The C2C12 cells were plated at 200,000 cells/well in 6-well plates and grown overnight in DMEM containing 10% FBS. On day 2, the culture medium was replaced with DMEM containing 2% FBS and the cells were treated with 90-100 ng/ml of BMP-2 (as noted in each experiment), various concentrations of compound, and 100-120 ng/ml of noggin (as noted in each experiment) for 72 hours. The cells were washed with phosphate-buffered saline (PBS) and lysed by addition of lysis buffer (10 mM Tris-HCl pH 8.0, 1 mM MgCl2 and 1.0% Triton X-100). The cell lysates were centrifuged for 5 minutes at 13,000×g. The supernatant was removed and the aliquots were assayed for ALP activity and protein amount. The ALP activity was measured in triplicate using an ALP assay kit (Sigma-Aldrich, St. Louis, Mo.) in microtiter plates. The protein amount was determined with Bio-Rad protein assay reagent (Bio-Rad, Hercules, Calif.) using bovine serum albumin (BSA) as a standard. The ALP activity (nmoles of p-nitrophenol per ml) was normalized to the protein amount (nmoles of p-nitrophenol per μg).

[3] = test system: Sprague Dawley rats; test: Collagen disc implantation with macrolides in rat ectopic model; assay type: in vivo; set-up: Ave. (Xray score): scale not given here; conditions: for Ave. (Xray score) / Results (bone, animals with bone of 4): 100 ul, collagen, no BMP-2, 4 weeks
Description: Sprague Dawley rats about 5-6 weeks of age were chest implanted with a collagen disc (diameter of 1.0 cm and height of 2.0 mm; total volume of 150 cubic millimeters) and doses of macrolides in the absence of BMP-2. After 4 weeks the rats were sacrificed and evaluated for bone growth. […] In certain embodiments, the disclosure contemplates local bone formation for fracture repair, segmental bone defects, spine fusion, bone grafting, and regional bone enhancement for osteopenic bones before they fracture (e.g. hip, vertebral body, etc) by deliver locally to induce local bone formation.

| Compound | Fold increase in BMP-Potentiated ALP activity over BMP control [1] | Fold increase in Noggin-Inhibition ALP Assay over BMP alone control [2] | also measured |
| --- | --- | --- | --- |
| COc1cc(C)c(/C=C/C(C)=C/C=C/C(C)=C/C(=O)O)c(C)c1C [Acitretin, acitretin] | 33 | 3 |  |
| O=C(O)CCCc1ccc(N(CCCl)CCCl)cc1 [Chlorambucil, chlorambucil] | 3 | 4 |  |
| Clc1ccccc1C(c1ccccc1)(c1ccccc1)n1ccnc1 [Clotrimazole, 1-[(2-chlorophenyl)diphenylmethyl]-1H-imidazole] | 7 | 4 | BMP-induced ALP activity ([1]; nanomolar concentrations, FIG. 5): dose dependent increase |
| CCC(=O)O[C@]1(C(=O)SCF)[C@H](C)C[C@H]2[C@@H]3C[C@H](F)C4=CC(=O)C=C[C@]4(C)[C@@]3(F)[C@@H](O)C[C@@]21C [Fluticasone Propionate, 6,9-difluoro-11-hydroxy-16-methyl-3-oxo-17-(1-oxopropoxy)-androsta-1,4-diene-17-carbothioic acid S-(fluoromethyl) ester] | 6 | 3 |  |
| C=CCc1ccc(O)c(-c2ccc(O)c(CC=C)c2)c1 [Honokiol, 3′,5-di-2-propen-1-yl-[1,1′-biphenyl]-2,4′-diol] | 5 | 16 |  |
| CC1=C(/C=C/C(C)=C/C=C/C(C)=C\C(=O)O)C(C)(C)CCC1 [Isotretinoin, isotretinoin] | 30 | 3 |  |
| CC(=O)NC[C@H]1CN(c2ccc(N3CCOCC3)c(F)c2)C(=O)O1 [Linezolid, N-[[(5S)-3-[3-fluoro-4-(4-morpholinyl)phenyl]-2-oxo-5-oxazolidinyl]methyl]-acetamide] | 5 | 3 |  |
| CC1=C(/C=C/C(C)=C/C=C/C(C)=C/C(=O)O)C(C)(C)CCC1 [Retinoic acid, (2E,4E,6E,8E)-3,7-dimethyl-9-(2,6,6-trimethylcyclohexen-1-yl)nona-2,4,6,8-tetraenoic acid] | 11 | 2 |  |
| CC(=O)S[C@@H]1CC2=CC(=O)CC[C@]2(C)[C@H]2CC[C@@]3(C)[C@@H](CC[C@@]34CCC(=O)O4)[C@H]12 [Spironolactone, spironolactone] | 3 | 4 |  |
| C=CCC1C=C(C)CC(C)CC(OC)C2OC(O)(C(=O)C(=O)N3CCCCC3C(=O)OC(/C(C)=C/C3CCC(O)C(OC)C3)C(C)C(O)CC1=O)C(C)CC2OC (stereo not drawn) [Tacrolimus, 5,6,8,11,12,13,14,15, 16,17,18,19,24,25,26,26a-hexadecahydro-5,19-dihydroxy-3-[(1E)-2-[4-hydroxy-3-methoxycyclohexyl]-1-methylethenyl]-14,16-dimethoxy-4,10,12,18-tetramethyl-8-(2-propen-1-yl)-15,19-epoxy-3H-pyrido[2,1-c][1,4]oxaazacyclotricosine-1,7,20,21(4H,23H)-tetrone] | 7 | 5 | Ave. (Xray score) ([3]; dose 10 mM): 0; Results (bone, animals with bone of 4) ([3]; dose 10 mM): No bone (0 of 4); Ave. (Xray score) ([3]; dose 15 mM): 0.5; Results (bone, animals with bone of 4) ([3]; dose 15 mM): Bone (1 of 4); Ave. (Xray score) ([3]; dose 20 mM): 3.25; Results (bone, animals with bone of 4) ([3]; dose 20 mM): Bone (3 of 4); Ave. (Xray score) ([3]; dose 25 mM): 4.25; Results (bone, animals with bone of 4) ([3]; dose 25 mM): Bone (4 of 4); Ave. (Xray score) ([3]; dose 30 mM): 2.5; Results (bone, animals with bone of 4) ([3]; dose 30 mM): Bone (3 of 4); Ave. (Xray score) ([3]; dose 35 mM): 4; Results (bone, animals with bone of 4) ([3]; dose 35 mM): Bone (4 of 4); De novo bone formation ([3]; local, collagen disc, chest implant, absence of BMP-2, 4 weeks): De novo bone formation is demonstrated locally |
| CCCc1nc2c(C)cc(-c3nc4ccccc4n3C)cc2n1Cc1ccc(-c2ccccc2C(=O)O)cc1 [Telmisartan, 4′-((1,7′-dimethyl-2′-propyl-1H,3′H-[2,5′-bibenzo[d]imidazol]-3′-yl)methyl)[1,1′-biphenyl]-2-carboxylic acid] | 3 | 3 |  |
| Nc1ccn([C@@H]2O[C@H](CO)[C@@H](O)[C@@H]2O)c(=O)n1 [cytarabine] |  |  | cell lifting from culture plates [2]: caused cell lifting from culture plates |
| CCOC(=O)C1=C(C)NC(C)=C(C(=O)OC)C1c1cccc(Cl)c1Cl (stereo not drawn) [felodipine] |  |  | cell lifting from culture plates [2]: caused cell lifting from culture plates |
| Clc1ccc(CON=C(Cn2ccnc2)c2ccc(Cl)cc2Cl)c(Cl)c1 [oxiconazole nitrate, 1-(2,4-dichlorophenyl)-2-(1H-imidazol-1-yl)ethanone O-(2,4-dichlorobenzyl) oxime] |  |  | cell lifting from culture plates [2]: caused cell lifting from culture plates |
